A short description of the series: gradient 5% acetonitrile 3 min, to 50% in 2 min, to 85% in 15 min, held 3 min, 100 µL/min. The settings on record: column: Zorbax Extend-C18 2.1 x 50 mm; eluents: water / acetonitrile, 0.1% formic acid. A digest of the protocol: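 Retention time was recorded from adduct peaks, which were picked computationally and each inspected manually. Pure standards ran in mixtures of ~100 molecules on HPLC coupled to a quadrupole time-of-flight mass spectrometer, in positive and negative ionization mode, through a Zorbax Extend-C18 column (2.1 × 50 mm, 1.8 μm) at 100 μL/min. Eluents were water and acetonitrile, each with 0.1% formic acid.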
Take `CC(NC(=O)c1ccc(Oc2nccnc2N2CCSCC2)cc1)c1ccc(F)cc1` (stereo not drawn): the RP-LC retention time came to 965 s. `Cc1cnc(-c2ccccc2)n1CCNS(=O)(=O)N(C)C` gave an RP-LC retention time of 572 s. The value for `O=C1CC(c2nc(-c3cccc(Cl)c3)no2)CN1c1ccc2c(c1)OCO2` (stereo not drawn) was 1030 s; that for `COc1cc(-c2nc3ncccn3c2NC2CCCCC2)cc(OC)c1OC` was 724 s. For the molecule `COc1ccc(/C=C/c2ccccc2F)cc1`, the RP-LC retention time was 1170 s. In the case of `COc1ccc2c(c1)C1(CCN(C(=O)c3ccc(C#N)cc3)C1)C(=O)N2` (stereo not drawn), the RP-LC retention time is 762 s. `Cc1ccc(CN2CCC3(CC2)CC(C)(O)CCO3)nc1` (stereo not drawn) showed an RP-LC retention time of 556 s. `O=C(CN1C(=O)C(C(=O)N2CCCCC2)Sc2ccccc21)NC1CCCCCC1` (stereo not drawn) gave an RP-LC retention time of 1090 s. `COc1ccc(-c2noc(-c3nn(-c4ccc(F)c(F)c4)ccc3=O)n2)cc1OC` displayed an RP-LC retention time of 835 s. The value for `Cc1csc(-c2ccc(N3CCN(C(=O)c4ccccc4Br)CC3)nc2)n1` was 884 s; that for `COCCn1cc2c3c(cccc31)CN(C(=O)Nc1cc(OC)c(OC)c(OC)c1)CC2` was 825 s; that for `O=C(Nc1nnc(-c2ccncc2)o1)c1cc(=O)c2ccccc2o1` was 600 s.

In turn, `CCOC(=O)C1CCN(c2cc3c(cc2NC(=O)C2CCCCC2)n(C)c(=O)c(=O)n3C)CC1` yielded an RP-LC retention time of 906 s. For the molecule `CCCNC(=O)N1CCc2nc(-c3ccccc3)ncc2C1`, the RP-LC retention time is 751 s. With `Cn1cc(-c2ccncc2)cc1C(=O)NCc1cccc(Br)c1`, the RP-LC retention time is 672 s. Regarding `O=S(=O)(c1ccc(Br)cc1)N1CCC(c2noc(-c3ccccc3)n2)CC1`, the RP-LC retention time turned out to be 1180 s.

`CCn1c(=O)sc2cc(S(=O)(=O)N3CCC(C(=O)Nc4ccc(C(C)C)cc4)CC3)ccc21`: the RP-LC retention time turned out to be 985 s. `CC1CCCN(C(=O)Cn2nc(-c3nc(-c4ccc5c(c4)OCO5)no3)ccc2=O)C1` (stereo not drawn) registered an RP-LC retention time of 765 s.

Consider `Cc1cccc(NC(=O)c2ccc(=O)n(Cc3ccc(F)cc3)n2)n1`, for which the RP-LC retention time worked out at 800 s. Next, `Cc1oc2ccn(Cc3ccccc3F)c(=O)c2c1C(=O)NC(C)c1ccccc1` (stereo not drawn): 1150 s.

Turning to `CNC(=O)c1ccc(-c2nc3cc(NS(=O)(=O)c4ccc(Cl)s4)ccc3n2C)cc1`, the RP-LC retention time came out at 660 s. Next, `CCOc1ccc(NC(=O)C2CCN(c3cncnc3N3CCOCC3)CC2)cc1`: 651 s; `COc1ccc(C)cc1NC(=O)Cn1nc2nc(Nc3ccc(C)cc3)ccn2c1=O`: 862 s; `Cc1noc(CNC(=O)C2CCN(C(=O)NCc3ccc(F)cc3)CC2)n1`: 615 s. In the case of `CCOc1ccc(-c2nc(CN(c3ccccc3)S(=O)(=O)c3cccs3)c(C)o2)cc1`, the RP-LC retention time was 1220 s.

As to `COC(=O)c1sc2ncccc2c1NC(=O)c1cccc(C)c1`, the RP-LC retention time worked out at 972 s. The molecule `CCOC(=O)c1c(S(=O)(=O)N2CCC(C(=O)N3CCCC3)CC2)c(C)n(C)c1C` returned an RP-LC retention time of 706 s.

With `C=CCNC(=O)c1ccc2[nH]c(C)c(C)c2c1`, the RP-LC retention time came to 568 s. The molecule `O=C(NCc1cccnc1)C1=C2CCCN2c2ccc(F)cc2S1(=O)=O` registered an RP-LC retention time of 572 s.

On to `COc1ccc(-c2cc(=S)ss2)cc1`, for which the RP-LC retention time turned out to be 1090 s. For the molecule `Cc1ccc(OCc2nc(C)c(C(=O)N3CCC(C(N)=O)CC3)s2)cc1`, the RP-LC retention time amounted to 696 s. Take `CCN(CC)S(=O)(=O)c1ccc2c(c1)cc(C(=O)N1CCN(c3ncccn3)CC1)n2C`: the RP-LC retention time was 880 s. Take `Cc1[nH]nc(-c2ccc(S(=O)(=O)NC(C)C)o2)c1C`: the RP-LC retention time was 729 s.

These data come from the METLIN SMRT retention time set (Domingo-Almenara et al. 2019).
